Experimental data reported in patent publication US4172943A, “(8-Substituted-10-hydroxy-5,5-dimethyl-1,2 ,3,4-tetrahydro-5H-(1)benzopyrano(4,3-C)pyridin-2-yl)acetyl ureas and derivatives” (Abbott Laboratories, priority 1978, dated 1979).

Columns and labels:
[1] = test system: acetic acid writhing response; assay: Mouse (Acetic Acid) Writhing Test; format: in vivo, female, ICR mice; conditions: for Activity % Inhibition / Ave. Number of Writhes (20 min.): p.o., one hour before acetic acid; for Ave. Number of Writhes (20 min.): controls 55.0
Procedure: In this test, groups of 5 female, ICR mice (Schmidt) weighing 19-25 g. were orally (p.o.) gavaged with compound (V) one hour prior to the intraperitoneal injection of 0.4 ml. of acetic acid 0.5% (v/v). Five minutes after the acid injection, the number of writhing responses over a 20 minute period were counted. One group received an oral dose of vehicle only to serve as controls. Activity was determined as the percent difference (inhibition) between the average number of writhes for the test groups as compared to the controls. An ED50 value representing the dose producing a 50% inhibition of the writhing response was calculated by a linear regression program.

[2] = test system: response time to radiated heat focused on the tail (rat tail flick); assay: Rat Tail Flick Test; format: in vivo, male, Sprague-Dawley rats; conditions: for average response time, 1 Hr. / Activity - Increase in Response Time (2 Hrs.) / average response time, 2 Hrs. / average response time, 3 Hrs.: p.o.
Procedure: In this test, groups of 10 male, Sprague-Dawley rats, weighing 142-170 g. were orally (p.o.) gavaged with compound (V) after the average normal response time to radiated heat focused on the tail had been established by two trials. Response times were recorded hourly for 3 hours after the administration of the compound. The activity was determined as the percent increase in response time over the average normal response for the response for the respective group. An ED50 value representing the dose producing a 50% increase in average response time was calculated by a linear regression program.

[3] = test system: methamphetamine-induced hyperactivity in rats; assay: Rat Desoxyn Antagonism Test; format: in vivo; conditions: methamphetamine 1 mg./kg., i.p.
Procedure: In this test, the antagonism or potentiation of methamphetamine-induced hyperactivity in rats was evaluated in motor activity chambers equipped with photocells (Lehigh Valley, Model #1497). Groups of rats were premedicated with Compound (V) and then administered methamphetamine (1 mg./kg., i.p.). One rat was placed in each chamber and three rats were used per test dose. Effect was recorded as percent change in counts from the photocells compared to methamphetamine-treated controls.

CC(CCCc1ccc(F)cc1)c1cc(O)c2c(c1)OC(C)(C)C1=C2CN(CC(=O)NC(N)=O)CC1 (centres unmarked) [Compound V, {{8-[5-(4-Fluorophenyl)-2-pentyl]-10-hydroxy-5,5-dimethyl-1,2,3,4-tetrahydro-5H-[1]benzopyrano[4,3-c]pyridin-2-yl}acetyl}urea]
Activity % Inhibition ([1]; 0.5 mg./kg.): 48.4%
Ave. Number of Writhes (20 min.) ([1]; 0.5 mg./kg.): 28.4
Activity % Inhibition ([1]; 1.0 mg./kg.): 50.2%
Ave. Number of Writhes (20 min.) ([1]; 1.0 mg./kg.): 27.4
Activity % Inhibition ([1]; 2.0 mg./kg.): 72.4%
Ave. Number of Writhes (20 min.) ([1]; 2.0 mg./kg.): 15.2
Activity % Inhibition ([1]; 4.0 mg./kg.): 89.1%
Ave. Number of Writhes (20 min.) ([1]; 4.0 mg./kg.): 6.0
ED50 ([1]; Mus musculus, po, dose producing 50% inhibition of writhing response, linear regression, (0.4, 1.0) printed after value): 0.7 mg/kg
average response time, 1 Hr. ([2]; 1.0 mg./kg., Normal 8.03): 9.03 s
Activity - Increase in Response Time (2 Hrs.) ([2]; 1.0 mg./kg., 2 hrs): 30.0%
average response time, 2 Hrs. ([2]; 1.0 mg./kg., 2 hrs, Normal 8.03): 10.44 s
average response time, 3 Hrs. ([2]; 1.0 mg./kg., Normal 8.03): 11.22 s
average response time, 1 Hr. ([2]; 2.0 mg./kg., Normal 6.80): 8.92 s
Activity - Increase in Response Time (2 Hrs.) ([2]; 2.0 mg./kg., 2 hrs): 56.0%
average response time, 2 Hrs. ([2]; 2.0 mg./kg., 2 hrs, Normal 6.80): 10.61 s
average response time, 3 Hrs. ([2]; 2.0 mg./kg., Normal 6.80): 10.99 s
average response time, 1 Hr. ([2]; 4.0 mg./kg., Normal 8.30): 11.13 s
Activity - Increase in Response Time (2 Hrs.) ([2]; 4.0 mg./kg., 2 hrs): 95.2%
average response time, 2 Hrs. ([2]; 4.0 mg./kg., 2 hrs, Normal 8.30): 16.20 s
average response time, 3 Hrs. ([2]; 4.0 mg./kg., Normal 8.30, average includes maximum values (30 seconds cut-off time)): 16.98 s
average response time, 1 Hr. ([2]; 8.0 mg./kg., Normal 7.97, average includes maximum values (30 seconds cut-off time)): 13.63 s
Activity - Increase in Response Time (2 Hrs.) ([2]; 8.0 mg./kg., 2 hrs): 98.6%
average response time, 2 Hrs. ([2]; 8.0 mg./kg., 2 hrs, Normal 7.97, average includes maximum values (30 seconds cut-off time)): 15.83 s
average response time, 3 Hrs. ([2]; 8.0 mg./kg., Normal 7.97): 14.32 s
ED50 ([2]; Rattus norvegicus, po, 2 hrs, dose producing 50% increase in average response time, linear regression, (0.02, 3.19) printed after value): 1.6 mg/kg
% Decreased Activity Over Control ([3]; oral dose 5 mg./kg.): 75%
% Decreased Activity Over Control ([3]; oral dose 20 mg./kg.): 93%
% Decreased Activity Over Control ([3]; oral dose 80 mg./kg.): 84%
